# Data published in patent US20240284906A1, “HERBICIDAL COMPOSITIONS CONTAINING CINMETHYLINE AND ETHOFUMESATE” (BAYER AKTIENGESELLSCHAFT, priority 2021, published 2024).
# What was measured:
# Avena fatua = assay: Pre-emergence weed control, pot trial; format: in vivo; details: pre-emergence (BBCH 00), 27 DAA, scale 0-100
# Procedure: (§1) The following plant species were selected for the tests:
# (§2) The seeds of the abovementioned biotypes were sown in 8 cm pots (LSI; pH 7.4; % C org 2.2). The temperature was kept at about 23°/15° C. day/night. After the herbicides had been applied (300 l water/ha), the pots were irrigated from beneath as required. Two trials were conducted. In a pre-emergence trial, the herbicides were applied directly after sowing at the BBCH 00 growth stage. In a post-emergence trial, the herbicides were deployed at the BBCH 11-12 growth stage.
# (§3) The active herbicidal ingredient cinmethylin was used as commercial emulsifiable concentrate (EC) LUMIMAX. Ethofumesate was used in the form of the commercial suspension concentrate (SC) Nortron. A methylated seed oil (Mero) was added to the spray liquids in an amount of 1 l/ha in order to assure good retention characteristics.
# (§4) The percentage of weed control (2 repetitions) was rated 27 days after the application of herbicide (DAA) on a scale of 0-100. A rating of 0 means no control, and 100 means complete control.
# (§5) According to Colby, synergistic effects of active herbicidal ingredients are indicated when the measured efficacy is higher than that expected, which is calculated by its formula for 2-substance mixtures: EC=A+B−(A×B)/100
# Veronica persica = assay: Pre-emergence weed control, pot trial; format: in vivo; details: pre-emergence (BBCH 00), 27 DAA, scale 0-100
# Procedure: as §1, §2, §3, §4, §5
# MATIN [1] = assay: Pre-emergence weed control, pot trial; format: in vivo, Matricaria inodora; details: pre-emergence (BBCH 00), 27 DAA, scale 0-100
# Procedure: as §1, §2, §3, §4, §5
# MATIN [2] = assay: Post-emergence weed control, pot trial; format: in vivo, Matricaria inodora; details: post-emergence (BBCH 11-12), 27 DAA, scale 0-100
# Procedure: as §1, §2, §3, §4, §5
# Alopecurus myosuroides = assay: Post-emergence weed control, pot trial; format: in vivo; details: post-emergence (BBCH 11-12), 27 DAA, scale 0-100
# Procedure: as §1, §2, §3, §4, §5
# Lolium rigidum = assay: Post-emergence weed control, pot trial; format: in vivo; details: post-emergence (BBCH 11-12), 27 DAA, scale 0-100
# Procedure: as §1, §2, §3, §4, §5
# Abuthilon theophrasti = assay: Post-emergence weed control, pot trial; format: in vivo; details: post-emergence (BBCH 11-12), 27 DAA, scale 0-100
# Procedure: as §1, §2, §3, §4, §5
Compound,Efficacy (percentage of weed control) AVEFA (Avena fatua; 100 g ai/ha),Efficacy (percentage of weed control) VERPE (Veronica persica; 50 g ai/ha),Efficacy (percentage of weed control) MATIN (MATIN [1]; 50 g ai/ha),Efficacy (percentage of weed control) MATIN (MATIN [2]; 25 g ai/ha),Efficacy (percentage of weed control) ALOMY (Alopecurus myosuroides; 100 g ai/ha),Efficacy (percentage of weed control) LOLRI (Lolium rigidum; 100 g ai/ha),Efficacy (percentage of weed control) ABUTH (Abuthilon theophrasti; 100 g ai/ha),Efficacy (percentage of weed control) AVEFA (Avena fatua; 20 g ai/ha),Efficacy (percentage of weed control) VERPE (Veronica persica; 10 g ai/ha),Efficacy (percentage of weed control) MATIN (MATIN [1]; 10 g ai/ha),Efficacy (percentage of weed control) MATIN (MATIN [2]; 50 g ai/ha),Efficacy (percentage of weed control) ALOMY (Alopecurus myosuroides; 20 g ai/ha),Efficacy (percentage of weed control) LOLRI (Lolium rigidum; 20 g ai/ha),Efficacy (percentage of weed control) ABUTH (Abuthilon theophrasti; 20 g ai/ha)
"Cc1ccccc1CO[C@@H]1C[C@]2(C(C)C)CC[C@@]1(C)O2 (racemic) [Cinmethylin, (+/−)-2-exo-(2-methylbenzyloxy)-1-methyl-4-isopropyl-7-oxabicyclo[2.2.1]heptane]",70%,20%,70%,20%,78%,63%,35%,–,–,–,–,–,–,–
CCOC1Oc2ccc(OS(C)(=O)=O)cc2C1(C)C (centres unmarked) [Ethofumesate],–,–,–,–,–,–,–,0%,0%,0%,10%,0%,0%,0%
